Data as given in patent US20150190416A1, “FILAGGRIN PRODUCTION PROMOTER, THERAPEUTIC AGENT FOR DISEASES ASSOCIATED WITH REDUCTION IN PRODUCTION OF FILAGGRIN, AND METHOD FOR SCREENING FOR SAID THERAPEUTIC AGENT” (KYOTO UNIVERSITY, priority 2012, published 2015).

Tests used:
Format in all cases: cell-based, human
[1] = system: FLG monomer; test: FLG monomer in three-dimensional cultured skin, Western blotting (Example 11); conditions: 1 μM, immunoblotting
Protocol: In this example, the expression-increasing effect of Compound 1 on FLG monomer was examined by using a three-dimensional cultured skin. The expression of the FLG monomer was confirmed by Western blotting.
In this example, the same procedures as those in the steps 1) to 3) of Example 10 were conducted. It should be noted that as a medicament, D) Comparative Compound 3 (M344) was used, as well as A) Compound 1 and C) Comparative Compound 2 of Example 10.
4) The three-dimensional cultured skin obtained in the same manner as in the steps 1) to 3) of Example 10 was recovered, and was cut into pieces with scissors. Then, 100 μl of Lysis buffer (0.1 M Tris-HCl (pH 9.0), 6 M Urea, 1% 2-mercapto-ethanol, 1% SDS, 1 mM EDTA, and Protease inhibitor cocktail) were added and the cells were homogenized with an electrically powered pestle. The homogenized cells were centrifuged at 15,000 rpm at 4° C. for 20 minutes, and the supernatant was recovered to be used as a sample for measurement. The total protein in the sample was quantified by using a protein assay reagent (Bio-Rad Laboratories, Inc.) according to the manufacturer's protocol. The protein was adjusted so that each sample contained 15 μg protein/lane, and the samples were subjected to electrophoresis by SDS-PAGE (Invitrogen, NuPAE Novex Bis-Tris mini Gel 4 to 12%) under the conditions of 100 V and 2 hours. As a marker, Precision Plus Protein Standards (Bio-Rad Laboratories, Inc.) was used. The proteins separated by the electrophoresis were transferred to a PVDF membrane (blotting), and the expression of FLG monomer was confirmed by using an anti-FLG antibody (Filaggrin AKH1, Santa Crus). At that time, Anti-mouse IgG-HRP (GE Healthcare) was used as a secondary antibody, and Amersham ECL Plus Western Blotting Detection Reagents (GE Healthcare) was used as a color developer.

[2] = system: GPR142; test: Blocking effect by GPR142 RNAi in NHEK cells (Examples 5 and 6); conditions: GPR142 siRNA, compound 10 nM, 1 day
Protocol: In this example, it was confirmed that the expression-inducing effects of Compound 1 on GPR142 mRNA and FLG mRNA in NHEK cells were blocked by GPR142 RNAi.
1) 5×10^4 cells/well of NHEK cells (Invitrogen) were plated on a 24-well plate. Then, 500 μl of a culture medium containing a medium for proliferating normal human epidermal keratinocytes (HuMedia-KG2, KURABO INDUSTRIES LTD.) supplemented with hEGF (0.1 ng/ml), insulin (10 μg/ml), hydrocortisone (0.5 μg/ml), gentamycin (50 μg/ml), amphotericin B (50 ng/ml), and bovine brain pituitary extract (BPE) (0.4%, v/v) were added to the plate, and the cells were cultured under the conditions of 37° C. and 5% CO2.
2) After culture under the conditions of the step 1) for 1 day, the medium was exchanged for the culture medium of the step 1) to which CaCl2 (1.2 mM in terms of Ca) was further added as Ca, and culture was conducted under the conditions of 37° C. and 5% CO2. After culture for 1 day, the medium was exchanged for the same culture medium containing Ca, and culture was further conducted for 1 day.
3) The NHEK cells of the step 2) were transfected with 50 nM of siRNA per well of the 24-well plate by using a transfection reagent, Lipofectamine RNA Max (Invitrogen) according to the manufacturer's protocol.
The sequences of the used three kinds of GPR142 siRNAs and the sequences of the used control siRNAs (all the siRNAs are manufactured by Invitrogen) are described below.
4) After culture for 1 day after the transfection with siRNA in the step 3), the medium was exchanged for the culture medium of the step 1) to which a DMSO solution of Compound 1 was added at 10 nM per well, and culture was further conducted for 1 day. As a control, a solvent only (vehicle) was added.
5) An extraction reagent (TRIzol™, Invitrogen) was used, and according to the manufacturer's protocol, total RNA was extracted from each of cells treated with the medicament. A reverse transcriptase reagent (Prime Script™, Takara) was used, and according to the manufacturer's protocol, cDNA was prepared from the total RNA. Next, real-time PCR was conducted by using the following primers and SYBR™ Premix Ex Taq (Takara) with a CFX96 real-time PCR instrument according to the manufacturer's protocol, and the amounts of GPR142 mRNA and FLG mRNA expression were measured. The result of measurement is shown as a GAPDH ratio.
In this example, it was confirmed that the expression-inducing effects of Compound 2 or 3 on GPR142 mRNA and FLG mRNA in NHEK cells were blocked by GPR142 RNAi.
NHEK cells were transfected in the same manner as in Example 5 except that, in the steps 1) to 3) of Example 5, two kinds of GPR142 siRNAs and two kinds of control siRNAs, i.e., GPR142-1 (#HSS139493) and GPR142-3 (#HSS179846) and Control-1 (LOW GC, #129350-200), and Control-3 (HIGH GC, #129350-400) were used as GPR142 siRNAs and control siRNAs, respectively. After culture for 1 day after the transfection was conducted in the same manner as in the step 4) of Example 5, the medium was exchanged for the culture medium to which each of a DMSO solution of Compound 1, a DMSO solution of Compound 2, or a methanol solution of Compound 3 was added at 10 nM per well, and culture was further conducted for 1 day. As a control, a solvent only (vehicle) was added. Regarding each of cells treated with the medicament, real-time PCR was conducted to measure the amounts of GPR142 mRNA and FLG mRNA in the same manner as in the step 5) of Example 5. The results of the measurement are shown as a GAPDH ratio.

[3] = system: GPR142; test: Action on adenylate cyclase activity (cAMP) in GPR142-overexpressing HEK293T cells (Examples 8 and 9); conditions: GPR142-overexpressing HEK293T cells, 1,000 nM, forskolin 10 μM, IBMX 1 mM, 20 minutes
Protocol: In this example, the cAMP production-suppressing effect of Compound 1 was confirmed.
1) 6×10^4 cells/well of HEK293T cells were plated on a collagen-coated 24-well plate, a culture medium containing DMEM medium (Invitrogen) supplemented with penicillin (50 μg/ml), streptomycin (50 μg/ml), and fetal bovine serum (FBS) (10%, v/v) was added to the plate, and the cells were cultured under the conditions of 37° C. and 5% CO2.
2) A GPR142PCXN mammalian expression vector was prepared in the same manner as in the step 2) of Example 7.
3) After culture for 1 day under the conditions of the step 1), HEK293T cells were transfected with 0.2 μg of the GPR142PCXN mammalian expression vector per well by using a transfection reagent Fugene™ HD (Promega Corporation) according to the manufacturer's protocol. As a control, cells transfected only with the PCXN mammalian expression vector were used.
4) After culture for 1 day after the transfection described above, 1 mM of isobutylmethylxanthine (IBMX), which was a cAMP phosphodiesterase inhibitory substance, was added to HEK293T cells, and thereafter, the cells were cultured for 10 minutes at 37° C.
5) Next, the medium was exchanged for the culture medium to which 0.1 nM to 1000 nM of a DMSO solution of Compound 1, 10 μM of forskolin, and 1 mM of IBMX per well were added, and the cells were further cultured for 20 minutes at 37° C. As a control, a solvent (vehicle), 10 μM of forskolin, and 1 mM of IBMX were added.
6) The cells cultured in the step 5) were lysed by 0.1 mol/L of HCl. The cAMP concentration within the cells was measured by using Cyclic AMP EIA Kit (Cayman Chemical Company) according to the manufacturer's protocol. The result is shown as the ratio (%) of the cAMP concentration in the cells treated with Compound 1 with respect to the cAMP concentration in the control example defined as 100%.
In this example, the cAMP production-suppressing effect of Compound 2 or 3 was confirmed.
HEK293T cells were cultured in the same manner as in the steps 1) to 4) of Example 8. Next, the cells were cultured in the same manner as in the step 5) of Example 8 except that, in the step 5) of Example 8, each of a methanol solution of Compound 3, a DMSO solution of Compound 2, and a DMSO solution of Comparative Compound 2 was used at 1,000 nM per well instead of Compound 1. The cAMP concentration in the cultured cells was measured in the same manner as in the step 6) of Example 8.

Compound | production of FLG monomer [1] | induction of FLG mRNA expression: dependence on GPR142 [2] | decrease of cAMP production [3]
CN(C)c1ccc(C(=O)NCCCCCCC(=O)NO)cc1 [Comparative Compound 3, 4-Dimethylamino-N-(6-hydroxycarbamoylhexyl)benzamide, reference compound] | clear production of FLG monomer was not observed |  | 
COC(=O)CNC(Cc1ccccc1)C(=O)Nc1cc(-c2ccncc2)nn1C.Cl.Cl (stereo not drawn) [Compound 3, Methyl 2-(1-(1-methyl-3-(pyridine-4-yl)-1H-pyrazol-5-ylamino)-1-oxo-3-phenylpropan-2-ylamino)acetate dihydrochloride] |  | mediated by GPR142 | about 24%
